# According to US6500858B2, “Taxoid anti-tumor agents and pharmaceutical compositions thereof” (The Research Foundation of the state University of New York, priority 1994, dated 2002):
# Several values for one entry are separate records, joined by “and”; a condition that tells them apart may be missing. Identical values can stand only once. Like-named read-outs stand apart in the source and are kept apart here.
# Assays:
# [1] = system: MCF7-R (mammary carcinoma cells 180-fold resistant to adriamycin); test: tumor cell growth inhibition (SRB, 72 h drug exposure); assay type: cell-based, human
# Description: (§1) Lower numbers indicate higher potency. […] The data represent the mean values of at least three separate experiments. Lower numbers indicate greater activity.
# (§2) Assessment of cell growth inhibition was determined according to the methods of Skehan et al., J. Nat. Cancer Inst. […] Briefly, cells were plated between 400 and 1200 cells/well in 96 well plates and incubated at 37° C. for 15-18 h prior to drug addition to allow attachment of cells. […] After a 72 h incubation, […] of ice-cold 50% TCA was added to each well and incubated for 1 h at 4° C. Plates were then washed 5 times with tap water to remove TCA, low-molecular-weight metabolites and serum proteins. Sulforhodamine B (SRB) (0.4%, […]) was added to each well. Following a 5 min incubation at room temperature, plates were rinsed 5 times with 0.1% acetic acid and air dried. […] Optical density was measured at 570 nm.
# MCF7 (mammary carcinoma) = test: as above; assay type: cell-based, human; details: read-out: MCF7 IC50
# Description: as §1, §2
# [2] = system: LCC6-WT: human breast carcinoma; test: cytotoxicity assay of second generation taxoids; assay type: cell-based; details: 72 h drug exposure; read-out: LCC6-WT IC50
# Description: A cytotoxicity assay of these new second generation taxoids was performed on human breast cancer cell lines, LCC6-WT and LCC-MDR, and selected taxoids were also assayed for their potency against MCF7 and MCF7-R (Skehan, P., et al., J. Nat. Cancer Inst. 1990, 82, 1107-1112).
# B16 melanoma = test: intravenous administration to mice bearing B16 melanoma; assay type: in vivo, B6D2F1 female mice; parameters: key to Responses (activity rating): A = active; HA = highly active
# Description: (§3) The efficacy of the test compounds on solid tumors in vivo was determined experimentally according to the following general experimental protocol:
# (§4) The mice subjected to the experiment were subcutaneously grafted bilaterally with 30 to 60 mg of a tumor fragment on day zero. Mice bearing tumors were mixed before being subjected to the various treatments and controls. In the case of treatment of advanced tumors, tumors were allowed to develop to the desired size, and mice having insufficiently developed tumors were eliminated. The selected mice were distributed at random to undergo the treatments and controls. Mice not bearing tumors may also be subjected to the same treatments as the tumor-bearing mice in order to be able to dissociate the toxic effect from the specific effect on the tumor. Chemotherapy generally began from 3 to 22 days after grafting, depending on the type of tumor, and the mice were observed every day. The different mice groups were weighed 3 or 4 times a week until the maximum weight loss was attained (nadir), and the groups were then weighed at least once a week until the end of the trial.
# (§5) The tumors were measured 2 or 3 times a week until the tumor reached approximately 2 grams, or until the animal died, if this occurred before the tumor reached 2 grams. The mice were autopsied when sacrificed.
# (§6) The antitumor activity was determined in accordance with different parameters recorded such as dose (mg/kg), mode of administration, time of administration, cytotoxicity, toxicity and log10 cell kill.
# SB-T-1213, SB-T-121303, SB-T-121304 and SB-T-1250 were evaluated in B6D2F1 female mice bearing B16 melanoma. The general experimental protocol was as described above. The compounds evaluated were administered intravenously (iv) on an intermittent schedule on days 3, 5, and 7 post tumor implantation. With the exception of SB-T-1250, solutions of the compounds for administration were prepared in 5% ethanol, 5% polysorbate 80, and 90% glucose 5% water.
# [3] = system: docetaxel-resistant melanoma, B16/TXT; test: intravenous administration to B16/TXT melanoma-bearing mice; assay type: in vivo, B6D2F1 female mice; details: days 3, 5, 7
# Description: as §3, §4, §5, §6
# SB-T-1213, SB-T-121303, SB-T-121304 and SB-T-1250 were evaluated in B6D2F1 female mice bearing the docetaxel-resistant melanoma, B16/TXT. The general experimental protocol was as described above. The compounds evaluated were administered intravenously on an intermittent schedule on days 3, 5, and 7 post tumor implantation.
Compound,IC50 [2] [nM],IC50 ([1]; Table 2) [nM],IC50 (MCF7 (mammary carcinoma); Table 2) [nM],also measured
"CC(=O)OC1C(=O)C2(C)C(O)CC3OCC3(OC(C)=O)C2C(OC(=O)c2cccc(C)c2)C2(O)CC(OC(=O)C(O)C(C=C(C)C)NC(=O)OC(C)(C)C)C(C)=C1C2(C)C (stereo not drawn) [Taxoid 7q, 3′-Dephenyl-3′-(2-methylprop-1-enyl)-2-debenzoyl-2-(3-methylbenzoyl)-10-acetyldocetaxel]",1.5,–,–,"IC50 ([1]; 72 h drug exposure, Table 3): 5 nM; IC50 (MCF7 (mammary carcinoma); 72 h drug exposure, Table 3): 0.8 nM"
"CC(=O)OC12COC1CC(O)C1(C)C(=O)C(OC(=O)C3CC3)C3=C(C)C(OC(=O)C(O)C(CC(C)C)NC(=O)OC(C)(C)C)CC(O)(C(OC(=O)c4ccccc4)C21)C3(C)C (stereo not drawn) [Taxoid Ic′, 3′-Dephenyl-3′-(2-methylpropyl)-10-cyclopropanecarbonyldocetaxel]",–,4.33,0.51,–
"CC(=O)OC12COC1CC(O)C1(C)C(=O)C(OC(=O)N(C)C)C3=C(C)C(OC(=O)C(O)C(CC(C)C)NC(=O)OC(C)(C)C)CC(O)(C(OC(=O)c4ccccc4)C21)C3(C)C (stereo not drawn) [Taxoid Ie′, 3′-Dephenyl-3′-(2-methylpropyl)-10-N,N-dimethylcarbamoyldocetaxel]",–,5.8,0.36,–
"COC(=O)OC1C(=O)C2(C)C(O)CC3OCC3(OC(C)=O)C2C(OC(=O)c2ccccc2)C2(O)CC(OC(=O)C(O)C(C=C(C)C)NC(=O)OC(C)(C)C)C(C)=C1C2(C)C (stereo not drawn) [Taxoid If, 3′-Dephenyl-3′-(2-methyl-1-propenyl)-10-methoxycarbonyldocetaxel]",–,5.25,0.14,–
"CC(=O)OC12COC1CC(O)C1(C)C(=O)C(OC(=O)C3CC3)C3=C(C)C(OC(=O)C(O)C(C=C(C)C)NC(=O)OC(C)(C)C)CC(O)(C(OC(=O)c4ccccc4)C21)C3(C)C (stereo not drawn) [Taxoid Ic, 3′-Dephenyl-3′-(2-methyl-1-propenyl)-10-cyclopropanecarbonyldocetaxel]",–,2.11,0.2,times better activity than paclitaxel and docetaxel against drug-resistant human breast cells ([1]; MCF7-R): 142 times
3′-Dephenyl-3′-(2-methylprop-1-enyl)-2-debenzoyl-2-(3-methoxybenzoyl)-10-cyclopropyldocetaxel [Taxoid 7m],1,–,–,–
"CC=CC(=O)OC1C(=O)C2(C)C(O)CC3OCC3(OC(C)=O)C2C(OC(=O)c2ccccc2)C2(O)CC(OC(=O)C(O)C(C=C(C)C)NC(=O)OC(C)(C)C)C(C)=C1C2(C)C (stereo not drawn) [Taxoid Id, 3′-Dephenyl-3′-(2-methyl-1-propenyl)-10-crotonoyldocetaxel]",–,3.35,0.26,–
CCC(=O)O[C@H]1C(=O)[C@@]2(C)[C@H]([C@H](OC(=O)c3cccc(OC)c3)[C@]3(O)C[C@H](OC(=O)[C@H](O)[C@H](C=C(C)C)NC(=O)OC(C)(C)C)C(C)=C1C3(C)C)[C@]1(OC(C)=O)CO[C@@H]1C[C@@H]2O [SB-T-121303],–,–,–,"Responses (activity rating) (B16 melanoma; 1.9 mg/kg/adm.): A; T/C (B16 melanoma; 1.9 mg/kg/adm., days 3, 5, 7): 12%; log10 cell kill (B16 melanoma; 1.9 mg/kg/adm., days 3, 5, 7): 1.7; % body weight loss at nadir (B16 melanoma; 1.9 mg/kg/adm., days 3, 5, 7, 1.9 mg/kg): 16.9% and 16.9 (13) %; drug related deaths (DD) (B16 melanoma; 3.2 mg/kg/adm., days 3, 5, 7): 100%; highest nontoxic dose (B16 melanoma; days 3, 5, 7): 1.9 mg/kg/adm.; T/C ([3]; 0.7 mg/kg/adm.): 94%; drug related deaths (DD) ([3]; 1.9 mg/kg/adm.): ⅕; drug related deaths (DD) ([3]; 3.2 mg/kg/adm.): 100%; highest nontoxic dose [3]: 1.2 mg/kg/adm."
"CCC(=O)OC1C(=O)C2(C)C(O)CC3OCC3(OC(C)=O)C2C(OC(=O)c2ccccc2)C2(O)CC(OC(=O)C(O)C(CC(C)C)NC(=O)OC(C)(C)C)C(C)=C1C2(C)C (stereo not drawn) [Taxoid Ib′, 3′-dephenyl-3′-(2-methylpropyl)-10-propanoyldocetaxel]",–,2.84,0.35,–
"C=Cc1cccc(C(=O)OC2C3C4(OC(C)=O)COC4CC(O)C3(C)C(=O)C(OC(=O)CC)C3=C(C)C(OC(=O)C(O)C(C=C(C)C)NC(=O)OC(C)(C)C)CC2(O)C3(C)C)c1 (stereo not drawn) [Taxoid 7p, 3′-Dephenyl-3′-(2-methylprop-1-enyl)-2-debenzoyl-2-(3-ethenylbenzoyl)-10-propanoyldocetaxel]",2.9,–,–,–
"CCC(=O)OC1C(=O)C2(C)C(O)CC3OCC3(OC(C)=O)C2C(OC(=O)c2cccc(OC)c2)C2(O)CC(OC(=O)C(O)C(NC(=O)OC(C)(C)C)[C@H]3CC3(C)C)C(C)=C1C2(C)C (stereo partly drawn) [Taxoid 7j, 3′-Dephenyl-3′-[(S)-2,2-dimethylcyclopropyl]-2-debenzoyl-2-(3-methoxybenzoyl)-10-propanoyldocetaxel]",0.48,–,–,"IC50 ([1]; 72 h drug exposure, Table 3): 1.5 nM; IC50 (MCF7 (mammary carcinoma); 72 h drug exposure, Table 3): 0.6 nM"
"CCC(=O)OC1C(=O)C2(C)C(O)CC3OCC3(OC(C)=O)C2C(OC(=O)c2cccc(OC)c2)C2(O)CC(OC(=O)C(O)C(NC(=O)OC(C)(C)C)C(F)F)C(C)=C1C2(C)C (stereo not drawn) [Taxoid 7g, 3′-Dephenyl-3′-difluoromethyl-2-debenzoyl-2-(3-methoxybenzoyl)-10-propanoyldocetaxel]",1.5,–,–,"IC50 ([1]; 72 h drug exposure, Table 3): 4.3 nM; IC50 (MCF7 (mammary carcinoma); 72 h drug exposure, Table 3): 0.4 nM"
"C/C=C/C(NC(=O)OC(C)(C)C)C(O)C(=O)OC1CC2(O)C(OC(=O)c3cccc(OC)c3)C3C4(OC(C)=O)COC4CC(O)C3(C)C(=O)C(OC(=O)CC)C(=C1C)C2(C)C (stereo not drawn) [Taxoid 7k, 3′-Dephenyl-3′-[(E)-prop-1-enyl]-2-debenzoyl-2-(3-methoxybenzoyl)-10-propanoyldocetaxel]",1.2,–,–,–
"CCC(=O)OC1C(=O)C2(C)C(O)CC3OCC3(OC(C)=O)C2C(OC(=O)c2cccc(Cl)c2)C2(O)CC(OC(=O)C(O)C(C=C(C)C)NC(=O)OC(C)(C)C)C(C)=C1C2(C)C (stereo not drawn) [Taxoid 7d, 3′-Dephenyl-3′-(2-methylprop-1-enyl)-2-debenzoyl-2-(3-chlorobenzoyl)-10-propanoyldocetaxel]",0.8,–,–,–
"C=CCC(NC(=O)OC(C)(C)C)C(O)C(=O)OC1CC2(O)C(OC(=O)c3cccc(OC)c3)C3C4(OC(C)=O)COC4CC(O)C3(C)C(=O)C(OC(=O)CC)C(=C1C)C2(C)C (stereo not drawn) [Taxoid 7i, 3′-Dephenyl-3′-(2-propenyl)-2-debenzoyl-2-(3-methoxybenzoyl)-10-propanoyldocetaxel]",1.2,–,–,"IC50 ([1]; 72 h drug exposure, Table 3): 8.7 nM; IC50 (MCF7 (mammary carcinoma); 72 h drug exposure, Table 3): 0.8 nM"
"CC(=O)OC12COC1CC(O)C1(C)C(=O)C(OC(=O)N(C)C)C3=C(C)C(OC(=O)C(O)C(C=C(C)C)NC(=O)OC(C)(C)C)CC(O)(C(OC(=O)c4ccccc4)C21)C3(C)C (stereo not drawn) [Taxoid Ie, 3′-Dephenyl-3′-(2-methyl-1-propenyl)-O-N,N-dimethylcarbamoyldocetaxel]",–,4.91,0.13,–
"CCC(=O)OC1C(=O)C2(C)C(O)CC3OCC3(OC(C)=O)C2C(OC(=O)c2cccc(F)c2)C2(O)CC(OC(=O)C(O)C(C=C(C)C)NC(=O)OC(C)(C)C)C(C)=C1C2(C)C (stereo not drawn) [Taxoid 7b, 3′-Dephenyl-3′-(2-methylprop-1-enyl)-2-debenzoyl-2-(3-fluorobenzoyl)-10-propanoyldocetaxel]",0.5,–,–,–
"COC(=O)OC1C(=O)C2(C)C(O)CC3OCC3(OC(C)=O)C2C(OC(=O)c2ccccc2)C2(O)CC(OC(=O)C(O)C(CC(C)C)NC(=O)OC(C)(C)C)C(C)=C1C2(C)C (stereo not drawn) [Taxoid If′, 3′-Dephenyl-3′-(2-methylpropyl)-10-methoxycarbonyldocetaxel]",–,6.35,0.48,–
"CCC(=O)OC1C(=O)C2(C)C(O)CC3OCC3(OC(C)=O)C2C(OC(=O)c2cccc(F)c2)C2(O)CC(OC(=O)C(O)C(CC(C)C)NC(=O)OC(C)(C)C)C(C)=C1C2(C)C (stereo not drawn) [Taxoid 7a, 3′-Dephenyl-3′-(2-methylpropyl)-2-debenzoyl-2-(3-fluorobenzoyl)-10-propanoyldocetaxel]",0.4,–,–,–
